Consider 1 compound from patent EP4596537A1, “NOVEL FLUORENE DERIVATIVE COMPOUND AND USE THEREOF” (JD Bioscience Inc., priority 2022, dated 2024).

The test concerns BALB/c male mice. The test is described as follows: Graft-versus-host disease (GvHD) animal model. Format: in vivo. The note with it: for body weight of the GvHD in vivo model: compared to control group. Set-up: change in body weight: unit not given here. The protocol: 5-week-old BALB/c male mice were acclimatized for 1 week and irradiated with 800 cGy of total body irradiation. Then, 5 × 10^6 bone marrow cells derived from C57BL/6J and 1 × 10^7 spleen cells were intravenously injected to establish a GvHD in vivo model (positive control). A syngeneic control group was established in the same manner as above, but BALB/c-derived bone marrow cells were selected as the injected bone marrow cells. Compound 1 Daily was established by daily oral gavage of1 mg/kg of Compound 1 to the GvHD in vivo model. Compound 1 Initial only was established by orally administering 1 mg/kg of Compound 1 to the GvHD in vivo model only for 6 days after model induction. The therapeutic effect of Compound 1 was verified by measuring the change in body weight every 3 days for each control and experimental group established as above, and the results are shown in FIG. 11 and Table 4. On day 14, the production of CD4^+IFNg^+ T cells, which is a major factor inducing GvHD, was measured in the spleens isolated from the mice, and the results are shown in FIG. 12 and Table 5.

For the compound `CC(C(=O)NNc1ccc(F)cc1)n1cc(-c2cc(F)cc3c2-c2ccccc2C3(O)C(F)(F)F)cn1` (stereo not drawn) [Example 1, 2-(4-(2-fluoro-9-hydroxy-9-(trifluoromethyl)-9H-fluoren-4-yl)-1H-pyrazol-1-yl)-N'-(4-fluorophenyl)propanehydrazide], the “change in body weight” value (Daily oral gavage 1 mg/kg, D0) was 0; the “change in body weight” value (Daily oral gavage 1 mg/kg, D3) is -14.77; the “change in body weight” value (Daily oral gavage 1 mg/kg, D6) is listed as -22.95; the “change in body weight” value (Daily oral gavage 1 mg/kg, D9) is -19.07; the “change in body weight” value (Daily oral gavage 1 mg/kg, D12) is -16.1959; the “change in body weight” value (Initial only: 1 mg/kg oral for 6 days after model induction, D0) turned out to be 0. Further, the “change in body weight” value is listed as -11.15 (Initial only: 1 mg/kg oral for 6 days after model induction, D3); -19.01 (Initial only: 1 mg/kg oral for 6 days after model induction, D6); -14.6667 (Initial only: 1 mg/kg oral for 6 days after model induction, D9); -11.99 (Initial only: 1 mg/kg oral for 6 days after model induction, D12). In addition, the “body weight of the GvHD in vivo model” value runs as follows: (Daily oral gavage 1 mg/kg) “significantly recovered”; (Initial only: 1 mg/kg oral for 6 days) “significantly recovered”.
